# Experimental data published in paper PMC11455950, “Effects of SZV-2649, a new multiple ion channel inhibitor mexiletine analogue” (Scientific Reports, 2024).
# Legend:
# [1] = system: dog right ventricular muscle preparations; assay: Conventional microelectrode action potential recording, dog ventricular muscle; details: 10 µM
# [2] = system: slow delayed rectifier potassium current (IKs); assay: Whole-cell patch-clamp, slow delayed rectifier potassium current in dog ventricular myocytes; type: cell-based; details: 10 µM, dog left ventricular myocytes
# Method: The effects of SZV-2649 on transmemrane ionic currents were investigated in dog cardiac myocytes after a 5-minute superfusion of the drug.
# The slow delayed rectifier potassium current (IKs) was elicited from the holding potential of -80 mV with a prepulse to -40 mV. The IKs tail current was measured at a post pulse to -40 mV after 5-second-long test pulses from − 20 mV to 50 mV using 10 mV increments at the pulsing cycle length of 10 s (see inset of Fig. 4B). The effect of SZV-2649 was investigated at the concentration of 10 µM.
# Ventricular myocytes from Beagle dogs were enzymatically dissociated as described in detail previously. […]
# The membrane currents were recorded with Axopatch-200B amplifiers (Molecular Devices, Sunnyvale, CA, USA) by means of the whole-cell configuration of the patch-clamp technique. […]
# The inward rectifier (IK1), the transient outward (Ito), the rapid (IKr) and the slow (IKs) delayed rectifier potassium currents were recorded in HEPES-buffered Tyrode’s solution. […] When IKr was recorded, IKs was inhibited by using the selective IKs blocker HMR-1556 (0.5 µM). […]
# [3] = target: T1, hERG (Kv11.1) potassium channel (Homo sapiens, UniProt Q12809); assay: Automated planar patch-clamp, hERG current in HEK cells; type: cell-based
# T1 construct: host or cells: HEK293
# T1 sequence (Q12809 whole entry): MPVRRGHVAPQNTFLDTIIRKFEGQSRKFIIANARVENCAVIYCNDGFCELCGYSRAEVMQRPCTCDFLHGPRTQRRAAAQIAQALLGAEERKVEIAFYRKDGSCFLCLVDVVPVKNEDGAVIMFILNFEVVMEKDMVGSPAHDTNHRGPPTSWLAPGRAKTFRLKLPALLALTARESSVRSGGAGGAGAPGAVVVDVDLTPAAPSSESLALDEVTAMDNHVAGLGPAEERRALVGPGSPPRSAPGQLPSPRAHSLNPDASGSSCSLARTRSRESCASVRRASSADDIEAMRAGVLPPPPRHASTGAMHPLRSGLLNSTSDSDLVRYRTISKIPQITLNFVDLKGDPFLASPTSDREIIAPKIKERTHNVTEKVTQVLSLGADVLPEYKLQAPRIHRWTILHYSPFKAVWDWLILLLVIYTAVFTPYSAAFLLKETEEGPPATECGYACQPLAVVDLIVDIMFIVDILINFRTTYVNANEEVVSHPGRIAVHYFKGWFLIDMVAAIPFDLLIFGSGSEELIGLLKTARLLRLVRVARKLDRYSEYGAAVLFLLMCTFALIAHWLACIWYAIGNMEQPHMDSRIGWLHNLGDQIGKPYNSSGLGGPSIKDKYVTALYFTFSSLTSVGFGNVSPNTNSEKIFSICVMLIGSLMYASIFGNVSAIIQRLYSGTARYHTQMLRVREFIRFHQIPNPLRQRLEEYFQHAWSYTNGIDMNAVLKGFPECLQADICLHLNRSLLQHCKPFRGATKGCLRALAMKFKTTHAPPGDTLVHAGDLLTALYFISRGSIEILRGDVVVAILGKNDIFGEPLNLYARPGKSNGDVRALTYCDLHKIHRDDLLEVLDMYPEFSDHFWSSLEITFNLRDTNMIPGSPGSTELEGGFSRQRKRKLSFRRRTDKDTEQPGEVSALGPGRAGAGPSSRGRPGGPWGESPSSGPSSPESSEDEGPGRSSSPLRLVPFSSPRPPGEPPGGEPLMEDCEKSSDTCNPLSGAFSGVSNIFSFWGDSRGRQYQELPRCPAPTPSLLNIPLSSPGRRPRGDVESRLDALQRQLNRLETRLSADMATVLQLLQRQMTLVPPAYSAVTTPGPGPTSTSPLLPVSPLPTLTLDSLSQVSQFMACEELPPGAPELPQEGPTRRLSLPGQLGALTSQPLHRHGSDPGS
# Source text: Inhibition of the hERG channel, the pore forming α-subunit of the native IKr cardiac potassium channel, is expected to prolong repolarization both in the atria and in the ventricles. The GIRK channel is the pore forming α-subunit of the acetylcholine-activated potassium channel and plays an important role in atrial electrophysiology. Its inhibition can be expected to decrease the acetylcholine-activated potassium current (IKACh), a current that plays an important role in the pathogenesis of AF. Therefore, the effects of SZV-2649 on the hERG and GIRK ion channels were studied by the planar patch-clamp technique in mammalian HEK cell lines stably expressing these channels.
# The currents conducted by the hERG and GIRK channels were measured by using planar patch-clamp technology[,[47],[68] in the whole-cell configuration with a four-channel medium-throughput fully automated patch-clamp platform (Patchliner Quattro, Nanion Technologies GmbH, Munich, Germany) with integrated temperature control. Data acquisition and online analysis were performed with an EPC-10 Quadro patch-clamp amplifier (HEKA Elektronik Dr Schulze GmbH, Lambrecht/Pfalz, Germany), using PatchMaster 2.65 software (HEKA Elektronik Dr. Schulze GmbH). The pipetting protocols were controlled by PatchControlHT 1.09.30 software (Nanion Technologies GmbH). […]
structure (smiles),measurement,setting,value
"CC(N)COc1c(I)cc(C#N)cc1I.Cl (centres unmarked) [SZV-2649, 4-(2-aminopropoxy)-3,5-diiodobenzonitrile hydrochloride]",Onset kinetics of Vmax block,"[1]; after 1 min rest, stimulation cycle length 400 ms",3.1
same,Effect on Vmax as a function of stimulation cycle length,"[1]; dog ventricular muscle, steady-state stimulation",decreased Vmax at cycle lengths shorter than 2000 ms
same,Effect on amplitude of IKs tail current,[2],did not change or only minimally decreased
same,IC50,[3]; HEK cells (abstract),342 nM
same,IC50 at 3 min,"[3]; human, HEK293 cells stably expressing hERG (Kv11.1), pH 7.4, printed in picture of Fig. 2b, read-out: Effect on hERG: EC50",342 nM
